Source: patent US20070105792A1, “Administration Of DNA Methylation Inhibitors For Treating Epigenetic Diseases” (priority 2005, published 2007)

How the values were obtained:
adult patients with MDS = conditions: about; after a decitabine cycle; cited from earlier work
[1] = Chemical stability of decitabine in reconstituted and diluted aqueous infusion fluid; conditions: for pH: after preparation of the infusion; for Average degradation rate / Maximum degradation (% peak area): 0.1-1 mg/mL; for Average degradation rate: estimate assuming linearity
cytidine deaminases = conditions: enzymatic degradation by cytidine deaminases, particularly in the small intestine; cited from earlier work
[2] = 0.1 mg/mL, 0.9% NaCl, Experiment 1: 2-8° C. one hour then room temperature, at 0 h
[3] = 0.1 mg/mL, 0.9% NaCl, Experiment 1: 2-8° C. one hour then room temperature, at 1 h
[4] = 0.1 mg/mL, 0.9% NaCl, Experiment 1: 2-8° C. one hour then room temperature, at 2 h
[5] = 0.1 mg/mL, 0.9% NaCl, Experiment 1: 2-8° C. one hour then room temperature, at 3 h
[6] = 0.1 mg/mL, 0.9% NaCl, Experiment 1: 2-8° C. one hour then room temperature, at 4 h
[7] = 0.1 mg/mL, 0.9% NaCl, Experiment 2: 2-8° C. ten hours then room temperature, at 0 h
[8] = 0.1 mg/mL, 0.9% NaCl, Experiment 2: 2-8° C. ten hours then room temperature, at 10 h
[9] = 0.1 mg/mL, 0.9% NaCl, Experiment 2: 2-8° C. ten hours then room temperature, at 11 h
[10] = 0.1 mg/mL, 0.9% NaCl, Experiment 2: 2-8° C. ten hours then room temperature, at 12 h
[11] = 0.1 mg/mL, 5% Dextrose, Experiment 1: 2-8° C. one hour then room temperature, at 0 h
[12] = 0.1 mg/mL, 5% Dextrose, Experiment 1: 2-8° C. one hour then room temperature, at 1 h
[13] = 0.1 mg/mL, 5% Dextrose, Experiment 1: 2-8° C. one hour then room temperature, at 2 h
[14] = 0.1 mg/mL, 5% Dextrose, Experiment 1: 2-8° C. one hour then room temperature, at 3 h
[15] = 0.1 mg/mL, 5% Dextrose, Experiment 1: 2-8° C. one hour then room temperature, at 4 h
[16] = 0.1 mg/mL, 5% Dextrose, Experiment 2: 2-8° C. ten hours then room temperature, at 0 h
[17] = 0.1 mg/mL, 5% Dextrose, Experiment 2: 2-8° C. ten hours then room temperature, at 10 h
[18] = 0.1 mg/mL, 5% Dextrose, Experiment 2: 2-8° C. ten hours then room temperature, at 11 h
[19] = 0.1 mg/mL, 5% Dextrose, Experiment 2: 2-8° C. ten hours then room temperature, at 12 h
[20] = 0.1 mg/mL, Lactated Ringer's, Experiment 1: 2-8° C. one hour then room temperature, at 0 h
[21] = 0.1 mg/mL, Lactated Ringer's, Experiment 1: 2-8° C. one hour then room temperature, at 1 h
[22] = 0.1 mg/mL, Lactated Ringer's, Experiment 1: 2-8° C. one hour then room temperature, at 2 h
[23] = 0.1 mg/mL, Lactated Ringer's, Experiment 1: 2-8° C. one hour then room temperature, at 3 h
[24] = 0.1 mg/mL, Lactated Ringer's, Experiment 1: 2-8° C. one hour then room temperature, at 4 h
[25] = 0.1 mg/mL, Lactated Ringer's, Experiment 2: 2-8° C. ten hours then room temperature, at 0 h
[26] = 0.1 mg/mL, Lactated Ringer's, Experiment 2: 2-8° C. ten hours then room temperature, at 10 h
[27] = 0.1 mg/mL, Lactated Ringer's, Experiment 2: 2-8° C. ten hours then room temperature, at 11 h
[28] = 0.1 mg/mL, Lactated Ringer's, Experiment 2: 2-8° C. ten hours then room temperature, at 12 h
[29] = about 1.0 mg/mL, 0.9% NaCl, Experiment 1: 2-8° C. one hour then room temperature, at 0 h
[30] = about 1.0 mg/mL, 0.9% NaCl, Experiment 1: 2-8° C. one hour then room temperature, at 1 h
[31] = about 1.0 mg/mL, 0.9% NaCl, Experiment 1: 2-8° C. one hour then room temperature, at 2 h
[32] = about 1.0 mg/mL, 0.9% NaCl, Experiment 1: 2-8° C. one hour then room temperature, at 3 h
[33] = about 1.0 mg/mL, 0.9% NaCl, Experiment 1: 2-8° C. one hour then room temperature, at 4 h
[34] = about 1.0 mg/mL, 0.9% NaCl, Experiment 2: 2-8° C. ten hours then room temperature, at 0 h
[35] = about 1.0 mg/mL, 0.9% NaCl, Experiment 2: 2-8° C. ten hours then room temperature, at 10 h
[36] = about 1.0 mg/mL, 0.9% NaCl, Experiment 2: 2-8° C. ten hours then room temperature, at 11 h
[37] = about 1.0 mg/mL, 0.9% NaCl, Experiment 2: 2-8° C. ten hours then room temperature, at 12 h
[38] = about 1.0 mg/mL, 5% Dextrose, Experiment 1: 2-8° C. one hour then room temperature, at 0 h
[39] = about 1.0 mg/mL, 5% Dextrose, Experiment 1: 2-8° C. one hour then room temperature, at 1 h
[40] = about 1.0 mg/mL, 5% Dextrose, Experiment 1: 2-8° C. one hour then room temperature, at 2 h
[41] = about 1.0 mg/mL, 5% Dextrose, Experiment 1: 2-8° C. one hour then room temperature, at 3 h
[42] = about 1.0 mg/mL, 5% Dextrose, Experiment 1: 2-8° C. one hour then room temperature, at 4 h
[43] = about 1.0 mg/mL, 5% Dextrose, Experiment 2: 2-8° C. ten hours then room temperature, at 0 h
[44] = about 1.0 mg/mL, 5% Dextrose, Experiment 2: 2-8° C. ten hours then room temperature, at 10 h
[45] = about 1.0 mg/mL, 5% Dextrose, Experiment 2: 2-8° C. ten hours then room temperature, at 11 h
[46] = about 1.0 mg/mL, 5% Dextrose, Experiment 2: 2-8° C. ten hours then room temperature, at 12 h
[47] = about 1.0 mg/mL, Lactated Ringer's, Experiment 1: 2-8° C. one hour then room temperature, at 0 h
[48] = about 1.0 mg/mL, Lactated Ringer's, Experiment 1: 2-8° C. one hour then room temperature, at 1 h
[49] = about 1.0 mg/mL, Lactated Ringer's, Experiment 1: 2-8° C. one hour then room temperature, at 2 h
[50] = about 1.0 mg/mL, Lactated Ringer's, Experiment 1: 2-8° C. one hour then room temperature, at 3 h
[51] = about 1.0 mg/mL, Lactated Ringer's, Experiment 1: 2-8° C. one hour then room temperature, at 4 h
[52] = about 1.0 mg/mL, Lactated Ringer's, Experiment 2: 2-8° C. ten hours then room temperature, at 0 h
[53] = about 1.0 mg/mL, Lactated Ringer's, Experiment 2: 2-8° C. ten hours then room temperature, at 10 h
[54] = about 1.0 mg/mL, Lactated Ringer's, Experiment 2: 2-8° C. ten hours then room temperature, at 11 h
[55] = about 1.0 mg/mL, Lactated Ringer's, Experiment 2: 2-8° C. ten hours then room temperature, at 12 h

SMILES: Nc1ncn([C@H]2C[C@H](O)[C@@H](CO)O2)c(=O)n1 [Decitabine, 5-aza-2′-deoxycytidine]
- Neutrophil nadir (delayed myelotoxicity, primary toxicity) (adult patients with MDS): 18 to 24 days
- Decitabine Content (%) [1, 2]: 97.5%
- Total Impurities (%) [1, 2]: (2.5%)
- Decitabine Content (%) [1, 3]: 96.9%
- Total Impurities (%) [1, 3]: (3.2%)
- Decitabine Content (%) [1, 4]: 95.7%
- Total Impurities (%) [1, 4]: (4.3%)
- Decitabine Content (%) [1, 5]: 94.1%
- Total Impurities (%) [1, 5]: (6.0%)
- Decitabine Content (%) [1, 6]: 92.5%
- Total Impurities (%) [1, 6]: (7.7%)
- Decitabine Content (%) [1, 7]: 97.8%
- Total Impurities (%) [1, 7]: (2.2%)
- Decitabine Content (%) [1, 8]: 93.4%
- Total Impurities (%) [1, 8]: (6.7%)
- Decitabine Content (%) [1, 9]: 92.3%
- Total Impurities (%) [1, 9]: (7.7%)
- Decitabine Content (%) [1, 10]: 90.8%
- Total Impurities (%) [1, 10]: (9.2%)
- pH ([1]; 0.1 mg/mL, 0.9% NaCl): 6.7
- Decitabine Content (%) [1, 11]: 97.4%
- Total Impurities (%) [1, 11]: (2.6%)
- Decitabine Content (%) [1, 12]: 97.2%
- Total Impurities (%) [1, 12]: (2.7%)
- Decitabine Content (%) [1, 13]: 96.4%
- Total Impurities (%) [1, 13]: (3.6%)
- Decitabine Content (%) [1, 14]: 94.9%
- Total Impurities (%) [1, 14]: (5.1%)
- Decitabine Content (%) [1, 15]: 93.6%
- Total Impurities (%) [1, 15]: (6.4%)
- Decitabine Content (%) [1, 16]: 98.2%
- Total Impurities (%) [1, 16]: (1.9%)
- Decitabine Content (%) [1, 17]: 94.9%
- Total Impurities (%) [1, 17]: (5.2%)
- Decitabine Content (%) [1, 18]: 94.5%
- Total Impurities (%) [1, 18]: (5.6%)
- Decitabine Content (%) [1, 19]: 93.3%
- Total Impurities (%) [1, 19]: (6.7%)
- pH ([1]; 0.1 mg/mL, 5% Dextrose): 6.9
- Decitabine Content (%) [1, 20]: 98.3%
- Total Impurities (%) [1, 20]: (1.7%)
- Decitabine Content (%) [1, 21]: 98.1%
- Total Impurities (%) [1, 21]: (1.9%)
- Decitabine Content (%) [1, 22]: 97.0%
- Total Impurities (%) [1, 22]: (3.0%)
- Decitabine Content (%) [1, 23]: 95.9%
- Total Impurities (%) [1, 23]: (4.1%)
- Decitabine Content (%) [1, 24]: 94.9%
- Total Impurities (%) [1, 24]: (5.2%)
- Decitabine Content (%) [1, 25]: 98.0%
- Total Impurities (%) [1, 25]: (2.1%)
- Decitabine Content (%) [1, 26]: 93.4%
- Total Impurities (%) [1, 26]: (6.7%)
- Decitabine Content (%) [1, 27]: 92.6%
- Total Impurities (%) [1, 27]: (7.4%)
- Decitabine Content (%) [1, 28]: 91.8%
- Total Impurities (%) [1, 28]: (8.3%)
- pH ([1]; 0.1 mg/mL, Lactated Ringer's): 6.7
- Average degradation rate ([1]; @ 4° C.): 0.40 %/hr
- Average degradation rate ([1]; @ Room Temperature): 2.44 %/hr
- Maximum degradation (% peak area) ([1]; S1 (6 hr stored @4° C. + 3 hr @ RT during infusion)): 9.72 % peak area
- Maximum degradation (% peak area) ([1]; S2 (7 hr stored @4° C. + 3 hr @ RT during infusion)): 10.12 % peak area
- Maximum degradation (% peak area) ([1]; S3 (7 hr stored @4° C. + 2 hr @ RT during infusion)): 7.68 % peak area
- Maximum degradation (% peak area) ([1]; S4 (8 hr stored @4° C. + 3 hr @ RT during infusion)): 10.52 % peak area
- Maximum degradation (% peak area) ([1]; S5 (8 hr stored @4° C. + 2 hr @ RT during infusion)): 8.08 % peak area
- Maximum degradation (% peak area) ([1]; S6 (9 hr stored @4° C. + 2 hr @ RT during infusion)): 8.48 % peak area
- Maximum degradation (% peak area) ([1]; S7 (10 hr stored @4° C. + 2 hr @ RT during infusion)): 8.88 % peak area
- pH deviation from neutral pH after preparation of the infusion ([1]; Table 1 and Table 2 solutions): ≤ 0.3 pH units
- Decitabine Content (%) [1, 29]: 98.0%
- Total Impurities (%) [1, 29]: (2.1%)
- Decitabine Content (%) [1, 30]: 96.8%
- Total Impurities (%) [1, 30]: (3.3%)
- Decitabine Content (%) [1, 31]: 94.8%
- Total Impurities (%) [1, 31]: (5.2%)
- Decitabine Content (%) [1, 32]: 92.8%
- Total Impurities (%) [1, 32]: (7.3%)
- Decitabine Content (%) [1, 33]: 91.1%
- Total Impurities (%) [1, 33]: (9.0%)
- Decitabine Content (%) [1, 34]: 97.4%
- Total Impurities (%) [1, 34]: (2.7%)
- Decitabine Content (%) [1, 35]: 93.4%
- Total Impurities (%) [1, 35]: (6.7%)
- Decitabine Content (%) [1, 36]: 92.5%
- Total Impurities (%) [1, 36]: (7.6%)
- Decitabine Content (%) [1, 37]: 90.8%
- Total Impurities (%) [1, 37]: (9.2%)
- pH ([1]; about 1.0 mg/mL, 0.9% NaCl): 6.7
- Decitabine Content (%) [1, 38]: 98.0%
- Total Impurities (%) [1, 38]: (2.0%)
- Decitabine Content (%) [1, 39]: 97.0%
- Total Impurities (%) [1, 39]: (3.1%)
- Decitabine Content (%) [1, 40]: 95.6%
- Total Impurities (%) [1, 40]: (4.4%)
- Decitabine Content (%) [1, 41]: 93.7%
- Total Impurities (%) [1, 41]: (6.4%)
- Decitabine Content (%) [1, 42]: 91.9%
- Total Impurities (%) [1, 42]: (8.1%)
- Decitabine Content (%) [1, 43]: 97.7%
- Total Impurities (%) [1, 43]: (2.4%)
- Decitabine Content (%) [1, 44]: 94.5%
- Total Impurities (%) [1, 44]: (5.5%)
- Decitabine Content (%) [1, 45]: 93.9%
- Total Impurities (%) [1, 45]: (6.1%)
- Decitabine Content (%) [1, 46]: 93.0%
- Total Impurities (%) [1, 46]: (7.1%)
- pH ([1]; about 1.0 mg/mL, 5% Dextrose): 7.1
- Decitabine Content (%) [1, 47]: 98.1%
- Total Impurities (%) [1, 47]: (2.0%)
- Decitabine Content (%) [1, 48]: 97.3%
- Total Impurities (%) [1, 48]: (2.7%)
- Decitabine Content (%) [1, 49]: 96.2%
- Total Impurities (%) [1, 49]: (3.8%)
- Decitabine Content (%) [1, 50]: 95.1%
- Total Impurities (%) [1, 50]: (4.9%)
- Decitabine Content (%) [1, 51]: 93.7%
- Total Impurities (%) [1, 51]: (6.4%)
- Decitabine Content (%) [1, 52]: 98.0%
- Total Impurities (%) [1, 52]: (2.1%)
- Decitabine Content (%) [1, 53]: 94.1%
- Total Impurities (%) [1, 53]: (5.9%)
- Decitabine Content (%) [1, 54]: 93.3%
- Total Impurities (%) [1, 54]: (6.8%)
- Decitabine Content (%) [1, 55]: 91.8%
- Total Impurities (%) [1, 55]: (8.2%)
- pH ([1]; about 1.0 mg/mL, Lactated Ringer's): 6.8
- Visual inspection of solutions ([1]; all reconstituted and diluted solutions): clear and colorless
- Drug content in the infusion solution during infusion ([1]; infusions prepared and stored as instructed): above 90%
- Oral bioavailability (cytidine deaminases): reduced oral bioavailability
